Data reported in PMC9046208, “Foldamers reveal and validate therapeutic targets associated with toxic α-synuclein self-assembly” (Nature Communications, 2022).
“Also recorded” adds a separate entry of the source.

What was measured:
αS oligomers = biological target: T1, αS oligomers (Homo sapiens, UniProt P37840); assay: Gel shift assay of αS supernatant (oligomers); format: biochemical; settings: 70 µM αS, 0.1, 0.2, 0.5 mol eq. ligand, 7 days
T1 construct: made in house; host or cells: Escherichia coli BL21(DE3), periplasm
Experimental: Supplementary Fig. 8. Gel-shift images of αS (70 µM) incubated in the absence (lane 2) and presence of SK-129 (a) and EGCG (b) at sub-stoichiometric ratios (0.1, 0.2, 0.5 mol eq.) for 7 days at 370C with constant shaking. The solutions of αS in the absence and presence of ligands were centrifuged and the supernatant was used for the gel shift assay. The arrows indicate the formation of various αS structures. The gel shift assay of the supernatant of the αS aggregated […]
fibers. Most of the αS was found in the supernatant as a mo nomer and a dimer in the presence of […]
their formation. The gel experiments were conducted at least two times to confirm the reproducibility of the data.
(1 picture or pasted object on this page, not shown here)

αS3 = biological target: T2, αS3 (Homo sapiens, UniProt P37840, DEL36-45); assay: Fluorescence polarization titration, SK-129F with αS3; format: binding; settings: FP
T2 construct: Synuclein Residues (1-140); made in house
Experimental: (§1) All Fluorescence Polarization (FP) experiments were conducted on a Varian Cary Eclipse fluorometer (Agilent, Santa Clara, CA) equipped with a polarizer. The stock solutions of αS, 1 mM or 100 μM in 1x PBS buffer, were serially added into a solution of 10 μM SK-129F (300 μL in 1x PBS buffer) while stirring in a quartz cuvette (Fireflysci, Staten Island, NY). All FP measurements were conducted in triplicates in 20 mM Tris, 100 mM NaCl, pH 7.2 at 20 °C. The excitation and emissions wavelengths were set at 490 nm and 520 nm, respectively. Each titration was equilibrated for five min before measurements were taken for the next addition of αS solution. The addition of αS solution was continuous until no more change in the FP signal was observed. Similar conditions were used for the titration of various αS mutants and Aβ42 peptide against SK-129F. A stock solution of Aβ42 (1 mM or 100 μM in 1x PBS buffer on ice) was sequentially added to a solution of 10 μM SK-129F (300 μL in 1x PBS buffer) until no more change in the FP signal was observed. The polarization of each point was calculated using Eq. 1:1 FP=I∥−I⊥/I∥+I⊥ Where I∥ is fluorescence intensity parallel to the excitation plane and I⊥ is fluorescence intensity perpendicular to the excitation plane. […]

αS = biological target: T3, αS (Homo sapiens, UniProt P37840); assay: Fluorescence polarization titration, SK-129F with WT αS; format: binding
T3 construct: made in house; host or cells: Escherichia coli BL21(DE3), periplasm
Experimental: All Fluorescence Polarization (FP) experiments were conducted on a Varian Cary Eclipse fluorometer (Agilent, Santa Clara, CA) equipped with a polarizer. The stock solutions of αS, 1 mM or 100 μM in 1x PBS buffer, were serially added into a solution of 10 μM SK-129F (300 μL in 1x PBS buffer) while stirring in a quartz cuvette (Fireflysci, Staten Island, NY). All FP measurements were conducted in triplicates in 20 mM Tris, 100 mM NaCl, pH 7.2 at 20 °C. The excitation and emissions wavelengths were set at 490 nm and 520 nm, respectively. Each titration was equilibrated for five min before measurements were taken for the next addition of αS solution. The addition of αS solution was continuous until no more change in the FP signal was observed. Similar conditions were used for the titration of various αS mutants and Aβ42 peptide against SK-129F. A stock solution of Aβ42 (1 mM or 100 μM in 1x PBS buffer on ice) was sequentially added to a solution of 10 μM SK-129F (300 μL in 1x PBS buffer) until no more change in the FP signal was observed. The polarization of each point was calculated using Eq. 1:1 FP=I∥−I⊥/I∥+I⊥ Where I∥ is fluorescence intensity parallel to the excitation plane and I⊥ is fluorescence intensity perpendicular to the excitation plane. The plot between the relative change in the FP signal against the concentration of the protein (αS/ Aβ42) was fit using one site binding model and Kd between SK-129F and αS (αS mutants/Aβ42) was extracted from the fit. For displacement titration, a 10 μM SK-129F solution was saturated with 10 mole equivalents of αS (300 μL in 1x PBS buffer). To this solution, a stock solution of SK-129 (1 mM or 10 mM) was serially added to displace SK-129F from the αS-SK-129F complex. The solution of SK-129 was continuously added until no more change in the FP signal was observed. A plot between the relative change in the FP signal against the concentration of SK-129 was fit using a one-site competitive binding model and Kd between SK-129 and αS was extracted from the fit.

αS4 = assay: Fluorescence polarization titration, SK-129F with αS4; format: binding; settings: FP
Experimental: as §1

αS1 = biological target: T4, αS1 (Homo sapiens, UniProt P37840, DEL6-12); assay: Fluorescence polarization titration, SK-129F with αS1; format: binding; settings: FP
T4 construct: made in house; host or cells: Escherichia coli BL21(DE3), periplasm
Experimental: as §1

αS2 = biological target: T5, αS2 (Homo sapiens, UniProt P37840, DEL15-23); assay: Fluorescence polarization titration, SK-129F with αS2; format: binding; settings: FP
T5 construct: made in house
Experimental: as §1

Row | SMILES | αS species in gel shift assay (αS oligomers) | binding affinity weaker than WT αS (αS3) | Kd (αS; FP fit, WT αS, trial 1) [nM] | Kd (αS; FP fit, WT αS, trial 2) [nM] | Kd (αS; FP fit, WT αS, trial 3) [nM] | Kd (αS; FP titration, 10 μM SK-129F with αS, mean ± s.d., n = 3) [nM] | binding affinity weaker than WT αS (αS4) [fold] | binding affinity weaker than WT αS (αS1) | binding affinity weaker than WT αS (αS2)
1 | O=C(O[C@@H]1Cc2c(O)cc(O)cc2O[C@@H]1c1cc(O)c(O)c(O)c1)c1cc(O)c(O)c(O)c1 [EGCG, Epigallocatechin Gallate] | higher-order toxic oligomers; also recorded: higher-order oligomers were observed | – | – | – | – | – | – | – | –
2 | COC(=O)c1cc(OCC(=O)O)c2cccc(NC(=O)c3cc(OC(C)C)c4cccc(NC(=O)c5cc(OCC(=O)O)c6cccc(NC(=O)c7cc(OC(C)C)c8cccc(NC(=S)NCC(=O)Nc9ccc(-c%10c%11ccc(=O)cc-%11oc%11cc(O)ccc%10%11)c(C(=O)O)c9)c8n7)c6n5)c4n3)c2n1 [SK-129F] | – | ~ 8 fold | 864 | 791 | 758 | 810 ± 90 | > 10 | 3–4 fold | 3–4 fold
